Test system: Rh41-807R cells
Conditions: 1:1 ratio, Combination Index less than 1 indicates synergy
Text: A dilution of ratios drug combination method was used in cellular proliferation assays to test the IC50 values of single agent (A or B) as well as in combination (a or b). […] Combination Index=(a/A+b/B).

Q: Which “activity in growth inhibition in combination with BMS-754807” value does the source give for `Cc1ccc(NC(=O)c2ccc(CN3CCN(C)CC3)cc2)cc1Nc1nccc(-c2cccnc2)n1` [imatinib] here?
A: synergistic activity
